# Peptide text beside a SMILES is read from it.
# Key:
# [1] = target: T1, peptide amidase from Xanthomonas maltophilia (Stenotrophomonas maltophilia, UniProt Q8RJN5); assay: Substrate spectrum of peptide amidase, enzymatic determination of the released ammonia; assay type: biochemical; conditions: substrate 10 mM, 18 mU peptide amidase per ml, 50 mM tris/HCl pH 7.5, 30° C., 3 hours
# T1 construct: wild type, not recombinant
# T1 sequence (Q8RJN5 34-540): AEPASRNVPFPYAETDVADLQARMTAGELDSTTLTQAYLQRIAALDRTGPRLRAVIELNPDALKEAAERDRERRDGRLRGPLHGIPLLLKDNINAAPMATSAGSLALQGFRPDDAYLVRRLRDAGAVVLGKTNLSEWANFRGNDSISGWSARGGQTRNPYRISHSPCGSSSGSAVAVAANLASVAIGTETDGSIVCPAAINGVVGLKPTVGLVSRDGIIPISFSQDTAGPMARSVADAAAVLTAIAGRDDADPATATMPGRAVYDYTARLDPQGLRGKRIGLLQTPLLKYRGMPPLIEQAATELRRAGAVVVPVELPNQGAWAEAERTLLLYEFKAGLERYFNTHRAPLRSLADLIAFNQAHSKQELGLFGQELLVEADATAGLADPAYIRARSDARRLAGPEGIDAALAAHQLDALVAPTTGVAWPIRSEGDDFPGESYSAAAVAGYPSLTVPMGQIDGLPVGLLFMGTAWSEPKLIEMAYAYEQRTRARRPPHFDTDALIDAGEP
# Protocol: (§1) 18 mU of peptide amidase (purification state after the gel filtration) per ml test batch was used for the substrate spectrum of peptide amidase from Xanthomonas maltophilia. The concentration of the tested substrates was 10 mM in the reaction batch. Unless otherwise indicated, L-amino acid derivatives were used. The incubation took place in 50 mM tris/HCl, pH 7.5 at 30° C. for 3 hours. The reaction was stopped by heating for 5 minutes at 95° C. The determination of activity took place using enzymatic determination of the released ammonia (Bergmeyer, U. (1985): Methods of Enzymatic Analysis, p. 459, VCH Verlagsgesellschaft, Weinheim).
# [2] = target: T1, peptide amidase from Xanthomonas maltophilia; assay: Enzymatic conversion of unprotected amino acid amides, thin-layer chromatography; assay type: biochemical; conditions: substrate 10 mM
# Protocol: as §1
# The following thin-layer chromatographic methods were used for the analysis of the substrates and products cited in table 4d. To this end 1 μl of the stopped reaction batch was applied.
compound,measurement,setting,value
CC(=O)N[C@@H](CS)C(N)=O,"Relative conversion (conversion of N-acetyl amino acid amides, Table 4b)",[1],82%
"CC(=O)NC(CC(C)(C)C)C(N)=O (racemic) [Ac-D,L-neopentylglycine amide, Nα -acetyl-DL-neopentylglycine Amide]","Relative conversion (conversion of N-acetyl amino acid amides, Table 4b)",[1],131%
"CSCCC(NC(N)=O)C(N)=O (racemic) [N-Carbamoyl-D,L-Met-NH2]","Relative conversion (influence of protective group and adjacent amino acid, Table 4c)",[1],77%
"CCOC(=O)NC(CCSC)C(N)=O (racemic) [N-Ethoxy-D,L-Met-NH2, Nα -ethoxycarbonyl-DL-methionine amide]","Relative conversion (influence of protective group and adjacent amino acid, Table 4c)",[1],124%
"COC(=O)NC(CCSC)C(N)=O (racemic) [N-Methoxy-D,L-Met-NH2, Nα -methoxycarbonyl-DL-methionine Amide]","Relative conversion (influence of protective group and adjacent amino acid, Table 4c)",[1],109%
CC(=O)N[C@@H](C)C(N)=O [Ac-Ala-NH2],"Relative conversion (conversion of N-acetyl amino acid amides, Table 4b)",[1],182%
CC(=O)N[C@@H](CCCNC(=N)N)C(N)=O [Ac-Arg-NH2],"Relative conversion (conversion of N-acetyl amino acid amides, Table 4b)",[1],110%
CC(=O)N[C@@H](CCC(=O)O)C(N)=O [Ac-Glu-NH2],"Relative conversion (conversion of N-acetyl amino acid amides, Table 4b)",[1],162%
CC(=O)N[C@@H](Cc1c[nH]cn1)C(N)=O [Ac-His-NH2],"Relative conversion (conversion of N-acetyl amino acid amides, Table 4b)",[1],177%
CC[C@H](C)[C@H](NC(C)=O)C(N)=O [Ac-Ile-NH2],"Relative conversion (conversion of N-acetyl amino acid amides, Table 4b)",[1],6%
CC(=O)N[C@@H](CCCCN)C(N)=O [Ac-Lys-NH2],"Relative conversion (conversion of N-acetyl amino acid amides, Table 4b)",[1],175%
CC(=O)N[C@@H](Cc1ccccc1)C(N)=O [Ac-Phe-NH2],"Relative conversion (conversion of N-acetyl amino acid amides, Table 4b)",[1],134%
"CC(=O)N[C@H](C(N)=O)c1ccccc1 [Ac-Phg-NH2, N-acetylphenylglycine amide]","Relative conversion (conversion of N-acetyl amino acid amides, Table 4b)",[1],28%
CC(=O)N1CCC[C@H]1C(N)=O [Ac-Pro-NH2],"Relative conversion (conversion of N-acetyl amino acid amides, Table 4b)",[1],0%
CC(=O)N[C@@H](CO)C(N)=O [Ac-Ser-NH2],"Relative conversion (conversion of N-acetyl amino acid amides, Table 4b)",[1],58%
CC(=O)N[C@H](C(N)=O)[C@@H](C)O [Ac-Thr-NH2],"Relative conversion (conversion of N-acetyl amino acid amides, Table 4b)",[1],21%
CC(=O)N[C@@H](Cc1c[nH]c2ccccc12)C(N)=O [Ac-Trp-NH2],"Relative conversion (conversion of N-acetyl amino acid amides, Table 4b)",[1],157%
CC(=O)N[C@@H](Cc1ccc(O)cc1)C(N)=O [Ac-Tyr-NH2],"Relative conversion (conversion of N-acetyl amino acid amides, Table 4b)",[1],123%
same,"Relative conversion (influence of protective group and adjacent amino acid, Table 4c)",[1],123%
CC(=O)N[C@H](C(N)=O)C(C)C [Ac-Val-NH2],"Relative conversion (conversion of N-acetyl amino acid amides, Table 4b)",[1],1%
C[C@H](N)C(=O)N[C@@H](C)C(N)=O [Ala-Ala-NH2] (H-Ala-Ala-NH2),"Relative conversion (conversion of dipeptide amides, Table 4a)",[1],211%
same,"Relative conversion (influence of protective group and adjacent amino acid, Table 4c)",[1],211%
C[C@H](N)C(=O)N[C@@H](CC(N)=O)C(=O)O [Ala-Asn-OH] (H-Ala-Asn-OH),"Relative conversion (conversion of dipeptide amides, Table 4a)",[1],0%
C[C@H](N)C(=O)N[C@@H](CCC(N)=O)C(=O)O [Ala-Gln-OH] (H-Ala-Gln-OH),"Relative conversion (conversion of dipeptide amides, Table 4a)",[1],0%
C[C@H](N)C(=O)NCC(N)=O [Ala-Gly-NH2] (H-Ala-Gly-NH2),"Relative conversion (conversion of dipeptide amides, Table 4a)",[1],39%
C[C@H](N)C(=O)N[C@@H](Cc1ccccc1)C(N)=O [Ala-Phe-NH2],"Relative conversion (conversion of dipeptide amides, Table 4a)",[1],218%
CSCC[C@H](NC(=O)[C@@H](N)CCCNC(=N)N)C(N)=O [Arg-Met-NH2] (H-Arg-Met-NH2),"Relative conversion (influence of protective group and adjacent amino acid, Table 4c)",[1],125%
NC(=O)[C@H](Cc1ccc(O)cc1)NC(=O)c1ccccc1 [Bz-Tyr-NH2],"Relative conversion (influence of protective group and adjacent amino acid, Table 4c)",[1],173%
NCC(=O)N[C@@H](CC(N)=O)C(=O)O [Gly-Asn-OH] (H-Gly-Asn-OH),"Relative conversion (conversion of dipeptide amides, Table 4a)",[1],0%
NCC(=O)NCC(N)=O [Gly-Gly-NH2],"Relative conversion (conversion of dipeptide amides, Table 4a)",[1],8%
NCC(=O)N[C@@H](Cc1ccccc1)C(N)=O [Gly-Phe-NH2] (H-Gly-Phe-NH2),"Relative conversion (conversion of dipeptide amides, Table 4a)",[1],214%
NCC(=O)N[C@@H](Cc1ccc(O)cc1)C(N)=O [Gly-Tyr-NH2] (H-Gly-Tyr-NH2),"Relative conversion (conversion of dipeptide amides, Table 4a)",[1],174%
same,"Relative conversion (influence of protective group and adjacent amino acid, Table 4c)",[1],174%
C[C@H](N)C(N)=O [H-Ala-NH2],Conversion (unprotected amino acid amides),[2],0
same,"Conversion (unprotected amino acid amides, Table 4d)",[2],0
C[C@@H](N)C(N)=O [H-D-Ala-NH2],Conversion (unprotected amino acid amides),[2],0
same,"Conversion (unprotected amino acid amides, Table 4d)",[2],0
CC(C)C[C@@H](N)C(N)=O [H-D-Leu-NH2],Conversion (unprotected amino acid amides),[2],0
same,"Conversion (unprotected amino acid amides, Table 4d)",[2],0
CC[C@H](C)[C@H](N)C(N)=O [H-Ile-NH2],Conversion (unprotected amino acid amides),[2],0
same,"Conversion (unprotected amino acid amides, Table 4d)",[2],0
CC(C)C[C@H](N)C(N)=O [H-Leu-NH2],Conversion (unprotected amino acid amides),[2],0
same,"Conversion (unprotected amino acid amides, Table 4d)",[2],0
NCCCC[C@H](N)C(N)=O [H-Lys-NH2],Conversion (unprotected amino acid amides),[2],0
same,"Conversion (unprotected amino acid amides, Table 4d)",[2],0
CSCC[C@H](N)C(N)=O [H-Met-NH2],Conversion (unprotected amino acid amides),[2],0
same,"Conversion (unprotected amino acid amides, Table 4d)",[2],0
NC(=O)[C@@H](N)Cc1ccccc1 [H-Phe-NH2],Conversion (unprotected amino acid amides),[2],0
same,"Conversion (unprotected amino acid amides, Table 4d)",[2],0
NC(=O)[C@@H](N)CO [H-Ser-NH2],Conversion (unprotected amino acid amides),[2],0
same,"Conversion (unprotected amino acid amides, Table 4d)",[2],0
C[C@@H](O)[C@H](N)C(N)=O [H-Thr-NH2],Conversion (unprotected amino acid amides),[2],0
same,"Conversion (unprotected amino acid amides, Table 4d)",[2],0
NC(=O)[C@@H](N)Cc1c[nH]c2ccccc12 [H-Trp-NH2],Conversion (unprotected amino acid amides),[2],0
same,"Conversion (unprotected amino acid amides, Table 4d)",[2],0
NC(=O)[C@@H](N)Cc1ccc(O)cc1 [H-Tyr-NH2],Conversion (unprotected amino acid amides),[2],0
same,"Conversion (unprotected amino acid amides, Table 4d)",[2],0
CC(C)[C@H](N)C(N)=O [H-Val-NH2],Conversion (unprotected amino acid amides),[2],0
same,"Conversion (unprotected amino acid amides, Table 4d)",[2],0
N=C(N)NCCC[C@H](N)C(N)=O [H-arg-NH2],Conversion (unprotected amino acid amides),[2],0
same,"Conversion (unprotected amino acid amides, Table 4d)",[2],0
NC(=O)[C@H](Cc1ccccc1)NC(=O)[C@@H](N)Cc1cnc[nH]1 [His-Phe-NH2] (H-His-Phe-NH2),"Relative conversion (conversion of dipeptide amides, Table 4a)",[1],137%
CC(C)C[C@H](N)C(=O)N[C@@H](C)C(N)=O [Leu-Ala-NH2] (H-Leu-Ala-NH2),"Relative conversion (conversion of dipeptide amides, Table 4a)",[1],217%
same,"Relative conversion (influence of protective group and adjacent amino acid, Table 4c)",[1],217%
CC(C)C[C@H](N)C(=O)NCC(N)=O [Leu-Gly-NH2] (H-Leu-Gly-NH2),"Relative conversion (conversion of dipeptide amides, Table 4a)",[1],54%
CC(C)C[C@H](N)C(=O)N[C@@H](Cc1ccccc1)C(N)=O [Leu-Phe-NH2] (H-Leu-Phe-NH2),"Relative conversion (conversion of dipeptide amides, Table 4a)",[1],203%
C[C@H](NC(=O)[C@@H](N)Cc1ccccc1)C(N)=O [Phe-Ala-NH2],"Relative conversion (conversion of dipeptide amides, Table 4a)",[1],203%
same,"Relative conversion (influence of protective group and adjacent amino acid, Table 4c)",[1],203%
NC(=O)CNC(=O)[C@@H](N)Cc1ccccc1 [Phe-Gly-NH2] (H-Phe-Gly-NH2),"Relative conversion (conversion of dipeptide amides, Table 4a)",[1],51%
NC(=O)CNC(=O)[C@@H]1CCCN1 [Pro-Gly-NH2] (H-Pro-Gly-NH2),"Relative conversion (conversion of dipeptide amides, Table 4a)",[1],66%
NC(=O)[C@H](Cc1ccccc1)NC(=O)[C@@H]1CCCN1 [Pro-Phe-NH2] (H-Pro-Phe-NH2),"Relative conversion (conversion of dipeptide amides, Table 4a)",[1],158%
NC(=O)[C@H](Cc1ccccc1)NC(=O)[C@@H](N)CO [Ser-Phe-NH2],"Relative conversion (conversion of dipeptide amides, Table 4a)",[1],217%
NC(=O)CNC(=O)[C@@H](N)Cc1ccc(O)cc1 [Tyr-Gly-NH2],"Relative conversion (conversion of dipeptide amides, Table 4a)",[1],54%
NC(=O)[C@H](Cc1ccccc1)NC(=O)[C@@H](N)Cc1ccc(O)cc1 [Tyr-Phe-NH2] (H-Tyr-Phe-NH2),"Relative conversion (conversion of dipeptide amides, Table 4a)",[1],190%
NC(=O)[C@@H]1CCCN1C(=O)[C@@H](N)Cc1ccc(O)cc1 [Tyr-Pro-NH2] (H-Tyr-Pro-NH2),"Relative conversion (conversion of dipeptide amides, Table 4a)",[1],0%
CC(C)[C@H](N)C(=O)NCC(N)=O [Val-Gly-NH2] (H-Val-Gly-NH2),"Relative conversion (conversion of dipeptide amides, Table 4a)",[1],22%
CC(C)[C@H](N)C(=O)N[C@@H](Cc1ccccc1)C(N)=O [Val-Phe-NH2] (H-Val-Phe-NH2),"Relative conversion (conversion of dipeptide amides, Table 4a)",[1],140%
C[C@H](NC(=O)OCc1ccccc1)C(N)=O [Z-Ala-NH2],"Relative conversion (influence of protective group and adjacent amino acid, Table 4c)",[1],62%
C[C@@H](NC(=O)OCc1ccccc1)C(N)=O [Z-D-Ala-NH2],"Relative conversion (influence of protective group and adjacent amino acid, Table 4c)",[1],0%
N-acetyl-naphthylalanine amide [Ac-Nal-NH2],"Relative conversion (conversion of N-acetyl amino acid amides, Table 4b)",[1],84%
